We go through one cell line from the supplement of paper PMC10307832.

Experiment in all cases: relative viability (nuclei count vs DMSO), 5 days (fraction); higher = more cells survive
Compound in the assay “Omipalisib + AZD7762”: COc1ncc(-c2ccc3nccc(-c4ccnnc4)c3c2)cc1NS(=O)(=O)c1ccc(F)cc1F [Omipalisib] + NC(=O)Nc1cc(-c2cccc(F)c2)sc1C(=O)N[C@H]1CCCNC1 [AZD7762] (partner 0.2 µM)
In a few lines: (§1)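 Medians of duplicate plates are given as relative viability. That measure is the nuclei count in treated wells divided by the count in vehicle wells. Counts were taken on 4× images of lung cancer cell lines in 1536-well plates, 5 days after pin-tool dosing the day after seeding with one drug alone or a fixed anchor-drug dose plus five library-drug doses (not always all listed) in √10 steps.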

Compound in the assay “Omipalisib + Crizotinib”: COc1ncc(-c2ccc3nccc(-c4ccnnc4)c3c2)cc1NS(=O)(=O)c1ccc(F)cc1F [Omipalisib] + C[C@@H](Oc1cc(-c2cnn(C3CCNCC3)c2)cnc1N)c1c(Cl)ccc(F)c1Cl [Crizotinib] (partner 1 µM)
A digest of the protocol:
as §1

Compound in the assay “Omipalisib + Navitoclax”: COc1ncc(-c2ccc3nccc(-c4ccnnc4)c3c2)cc1NS(=O)(=O)c1ccc(F)cc1F [Omipalisib] + CC1(C)CCC(c2ccc(Cl)cc2)=C(CN2CCN(c3ccc(C(=O)NS(=O)(=O)c4ccc(N[C@H](CCN5CCOCC5)CSc5ccccc5)c(S(=O)(=O)C(F)(F)F)c4)cc3)CC2)C1 [Navitoclax] (partner 0.5 µM)
In a few lines: as §1

Compound in the assay “Omipalisib + Pemetrexed”: COc1ncc(-c2ccc3nccc(-c4ccnnc4)c3c2)cc1NS(=O)(=O)c1ccc(F)cc1F [Omipalisib] + Nc1nc2[nH]cc(CCc3ccc(C(=O)N[C@@H](CCC(=O)O)C(=O)O)cc3)c2c(=O)[nH]1 [Pemetrexed] (partner 0.2 µM)
A digest of the protocol: as §1

Compound in the assay “Omipalisib + Olaparib”: COc1ncc(-c2ccc3nccc(-c4ccnnc4)c3c2)cc1NS(=O)(=O)c1ccc(F)cc1F [Omipalisib] + O=C(c1cc(Cc2n[nH]c(=O)c3ccccc23)ccc1F)N1CCN(C(=O)C2CC2)CC1 [Olaparib] (partner 8 µM)
A digest of the protocol: as §1

Compound in the assay “Omipalisib + Tozasertib”: COc1ncc(-c2ccc3nccc(-c4ccnnc4)c3c2)cc1NS(=O)(=O)c1ccc(F)cc1F [Omipalisib] + Cc1cc(Nc2cc(N3CCN(C)CC3)nc(Sc3ccc(NC(=O)C4CC4)cc3)n2)n[nH]1 [Tozasertib] (partner 0.1 µM)
A digest of the protocol:
as §1

On to NCI-H1734, for which the relative viability came to 0.495 with Omipalisib + AZD7762 (first compound 0.0003 µM); 0.321 with Omipalisib + AZD7762 (first compound 0.003 µM); 0.201 with Omipalisib + AZD7762 (first compound 0.03 µM); 0.574 with Omipalisib + Crizotinib (first compound 0.0003 µM); 0.38 with Omipalisib + Crizotinib (first compound 0.003 µM); 0.213 in the assay with Omipalisib + Crizotinib (first compound 0.03 µM). The relative viability with Omipalisib + Navitoclax (first compound 0.0003 µM) was 0.763; with Omipalisib + Navitoclax (first compound 0.003 µM), 0.444; in the assay with Omipalisib + Navitoclax (first compound 0.03 µM) it was 0.275; with Omipalisib + Pemetrexed (first compound 0.0003 µM), 0.419; in the assay with Omipalisib + Pemetrexed (first compound 0.003 µM) it was 0.431; with Omipalisib + Pemetrexed (first compound 0.03 µM), 0.402. For the same cell line, the relative viability in the assay with Omipalisib + Olaparib (first compound 0.0003 µM) came out at 0.56; with Omipalisib + Olaparib (first compound 0.003 µM), 0.364; with Omipalisib + Olaparib (first compound 0.03 µM), 0.226; with Omipalisib + Tozasertib (first compound 0.0003 µM) it was 0.243; with Omipalisib + Tozasertib (first compound 0.003 µM) it was 0.233; with Omipalisib + Tozasertib (first compound 0.03 µM), 0.221.
